“And” between values parts separate entries of the source, which are not always exact repeats. Identical values can stand only once. Like-named read-outs stand apart in the source and are kept apart here. Peptide text beside a SMILES is read from it.
[1] = Cohort 1, 0.05 mg/kg IV infusion, Geometric Mean
[2] = Cohort 1, 0.05 mg/kg IV infusion, Max
[3] = Cohort 1, 0.05 mg/kg IV infusion, Mean
[4] = Cohort 1, 0.05 mg/kg IV infusion, Median
[5] = Cohort 1, 0.05 mg/kg IV infusion, Min
[6] = Cohort 1, 0.05 mg/kg IV infusion, cohort Geometric Mean
[7] = Cohort 1, 0.05 mg/kg IV infusion, cohort Mean
[8] = Cohort 1, 0.05 mg/kg IV infusion, cohort Median
[9] = Cohort 1, 0.05 mg/kg IV infusion, individual subject
[10] = Cohort 1, 0.05 mg/kg IV infusion, individual subjects
[11] = Cohort 3b and 4 section: over the 10-fold increase in dose
[12] = Cohort 3b and 4 section: over the […] increase in dose
[13] = Cohort 3b, […] IV infusion 2 hours, Max
[14] = Cohort 3b, […] IV infusion 2 hours, Min
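Also: phase 1 study in human subjects given one IV dose of the peptide, enrolled in sequential ascending-dose cohorts and randomized to peptide or placebo.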

Experimental: Administration was a single 1-hour infusion.
Subjects were enrolled in sequential cohorts of peptide ascending dose levels and randomly assigned to receive a single IV administration of either peptide or placebo over 1 to 2 hours. […] In addition, the infusion volume was adjusted for Cohort 4 to maintain drug concentrations in line with Cohort 2
Blood samples for PK assessment were collected at pre-dose, at the midpoint of infusion, within 1 minute after the end-of-infusion and at 0.5, 1, 2, 4, 6, 8, 12, 20, 24, 36 and 48 hours after the end-of-infusion.
The pharmaceutical composition was stored at 2° C. to 8° C. for up to 14 days and then 15° C. to 25° C. for up to 48 hours for dosing.
Subjects were enrolled in sequential cohorts of peptide ascending dose levels and randomly assigned to receive a single IV administration of either peptide or placebo over 1 to 2 hours.

## CC(C)[C@H](NC(=O)[C@H](Cc1c[nH]c2ccccc12)NC(=O)[C@H](CCCNC(=N)N)NC(=O)[C@H](CCCNC(=N)N)NC(=O)[C@@H](NC(=O)[C@@H](NC(=O)[C@H](CCCNC(=N)N)NC(=O)[C@@H](NC(=O)[C@@H](NC(=O)[C@H](CCCNC(=N)N)NC(=O)[C@H](CCCNC(=N)N)NC(=O)[C@H](Cc1c[nH]c2ccccc12)NC(=O)[C@@H](NC(=O)[C@H](CCCNC(=N)N)NC(=O)[C@H](CCCNC(=N)N)NC(=O)[C@@H](NC(=O)[C@H](CCCNC(=N)N)NC(=O)[C@H](CCCNC(=N)N)NC(=O)[C@@H](NC(=O)[C@H](Cc1c[nH]c2ccccc12)NC(=O)[C@H](CCCNC(=N)N)NC(=O)[C@@H](N)CCCNC(=N)N)C(C)C)C(C)C)C(C)C)C(C)C)C(C)C)C(C)C)C(C)C)C(=O)N[C@@H](CCCNC(=N)N)C(=O)N[C@@H](CCCNC(=N)N)C(N)=O [SEQ ID NO: 1] (H-RRWVRRVRRVWRRVVRVVRRWVRR-NH2)
Cohort 1, 0.05 mg/kg IV 1-hr infusion, 49 h, cohort mean
  Plasma Concentration by Nominal Time from Start of Infusion, Mean: 0.00 ng/mL
Cohort 1, 0.05 mg/kg IV 1 hr infusion, 0.0 h, individual subjects
  Plasma Concentration by Nominal Time from Start of Infusion: 0.00 ng/mL
Cohort 1, 0.05 mg/kg IV 1 hr infusion, 9.0 h, individual subjects
  Plasma Concentration by Nominal Time from Start of Infusion: 63.2 ng/mL
Cohort 1, 0.05 mg/kg IV 1 hr infusion, 13 h, individual subjects
  Plasma Concentration by Nominal Time from Start of Infusion: 32.9 ng/mL
Cohort 1, 0.05 mg/kg IV 1 hr infusion, 21 h, individual subjects
  Plasma Concentration by Nominal Time from Start of Infusion: 0.00 ng/mL
Cohort 1, 0.05 mg/kg IV 1 hr infusion, 25 h, individual subjects
  Plasma Concentration by Nominal Time from Start of Infusion: 0.00 ng/mL
Cohort 1, 0.05 mg/kg IV 1 hr infusion, 37 h, individual subjects
  Plasma Concentration by Nominal Time from Start of Infusion: 0.00 ng/mL
Cohort 1, 0.05 mg/kg IV 1 hr infusion, 49 h, cohort mean N 6
  Plasma Concentration by Nominal Time from Start of Infusion, Mean: 0.00 ng/mL
Cohort 1, 0.05 mg/kg IV 1 hr infusion, 49 h, individual subjects
  Plasma Concentration by Nominal Time from Start of Infusion: 0.00 ng/mL
[1]
  AUCextrap: 8.36%
  CL/F: 0.522 mL/min/kg
  Tlast: 24 h
  λz: 0.0946 h⁻¹
[2]
  AUC0-24: 1610 ng·h/mL
  AUC(0-inf): 1820 ng·h/mL
  AUC(0-t): 1720 ng·h/mL
  AUCextrap: 12.1%
  CL/F: 0.595 mL/min/kg
  Cmax: 341 ng/mL
  Tlast: 37 h
  t1/2: 8.59 h
  λz: 0.105 h⁻¹
[3]
  AUCextrap: 8.87%
  CL/F: 0.525 mL/min/kg
  Tlast: 25 h
  λz: 0.0950 h⁻¹
[4]
  AUCextrap: 8.12%
  Tlast: 25 h
  λz: 0.0951 h⁻¹
[5]
  AUC0-24: 619 ng·h/mL
  AUC(0-t): 515 ng·h/mL
  AUCextrap: 4.54%
  CL/F: 0.457 mL/min/kg
  Cmax: 170 ng/mL
  Tlast: 13 h
  t1/2: 6.62 h
  λz: 0.0807 h⁻¹
[6]
  AUCextrap: 8.36%
  CL/F: 0.522 mL/min/kg
  Tlast: 24 h
  λz: 0.0946 h⁻¹
[7]
  AUCextrap: 8.87%
  CL/F: 0.525 mL/min/kg
  Tlast: 25 h
  λz: 0.0950 h⁻¹
[8]
  AUCextrap: 8.12%
  Tlast: 25 h
  λz: 0.0951 h⁻¹
[9]
  AUC(0-inf): 1490 ng·h/mL and 1800 ng·h/mL and 1820 ng·h/mL
  CL/F: 0.595 mL/min/kg and 0.562 mL/min/kg
[10]
  AUC(0-inf): 1490 ng·h/mL and 1800 ng·h/mL and 1820 ng·h/mL
  Tlast: 25 h (4×) and 13 h and 37 h
Cohort 2, […] IV infusion, Max
  CL/F: 1.44 mL/min/kg
  t1/2: 15.5 h
Cohort 2, […] IV infusion, Mean
  CL/F: 0.878 mL/min/kg
Cohort 2, […] IV infusion, Median
  CL/F: 0.82 mL/min/kg
Cohort 2, […] IV infusion, Min
  CL/F: 0.322 mL/min/kg
  t1/2: 7.51 h
Cohort 2, […] IV infusion, cohort Mean
  CL/F: 0.878 mL/min/kg
Cohort 2, […] IV infusion, cohort Median
  CL/F: 0.82 mL/min/kg
Cohort 3, […] IV infusion, Geometric Mean
  CL/F: 0.91 mL/min/kg
Cohort 3, […] IV infusion, Max
  CL/F: 4.3 mL/min/kg
  t1/2: 21.8 h
Cohort 3, […] IV infusion, Mean
  CL/F: 1.4 mL/min/kg
Cohort 3, […] IV infusion, Min
  CL/F: 0.295 mL/min/kg
  t1/2: 5.80 h
Cohort 3, […] IV infusion, cohort Geometric Mean
  CL/F: 0.91 mL/min/kg
Cohort 3, […] IV infusion, cohort Mean
  CL/F: 1.4 mL/min/kg
[11]
  increase of AUC0-t: 6.4 fold
  increase of mean AUC0-24: 5.8 fold
  increase of mean Cmax: 7.1 fold
[12]
  increase of AUC0-t: 4.2 fold
  increase of mean AUC0-24: 3.7 fold
  increase of mean Cmax: 3.7 fold
Cohort 3b, […] IV infusion 2 hours, Geometric Mean
  CL/F: 0.748 mL/min/kg
[13]
  CL/F: 1.36 mL/min/kg
  t1/2: 17.5 h
Cohort 3b, […] IV infusion 2 hours, Mean
  CL/F: 0.795 mL/min/kg
Cohort 3b, […] IV infusion 2 hours, Median
  CL/F: 0.76 mL/min/kg
[14]
  CL/F: 0.415 mL/min/kg
  t1/2: 9.72 h
Cohort 3b, […] IV, infusion 2 hours, cohort Geometric Mean
  CL/F: 0.748 mL/min/kg
Cohort 3b, […] IV, infusion 2 hours, cohort Mean
  CL/F: 0.795 mL/min/kg
Cohort 3b, […] IV, infusion 2 hours, cohort Median
  CL/F: 0.76 mL/min/kg
Cohort 4, 0.5 mg/kg IV 2-hr infusion, 0.0 h, cohort mean
  Plasma Concentration by Nominal Time from Start of Infusion, Mean: 0.00 ng/mL
Cohort 4, 0.5 mg/kg IV infusion 2 hours, Geometric Mean
  AUCextrap: 7.38%
Cohort 4, 0.5 mg/kg IV infusion 2 hours, Max
  AUC0-24: 10400 ng·h/mL
